The Kd is the concentration at which binding is half-saturated. A lower Kd goes with tighter binding.

These results are taken from ChEMBL document CHEMBL1144455, “A small molecule-kinase interaction map for clinical kinase inhibitors” (Nat Biotechnol, 2005).

Assay [1] addresses Tyrosine-protein kinase Fer (Homo sapiens, UniProt P16591).
The target of assay [2] is Tyrosine-protein kinase CSK (Homo sapiens, UniProt P41240).
Assay [3] deals with Phosphorylase b kinase gamma catalytic chain, skeletal muscle/heart isoform (Homo sapiens, UniProt Q16816).
Chain of Phosphorylase b kinase gamma catalytic chain, skeletal muscle/heart isoform (Q16816 whole entry, canonical isoform): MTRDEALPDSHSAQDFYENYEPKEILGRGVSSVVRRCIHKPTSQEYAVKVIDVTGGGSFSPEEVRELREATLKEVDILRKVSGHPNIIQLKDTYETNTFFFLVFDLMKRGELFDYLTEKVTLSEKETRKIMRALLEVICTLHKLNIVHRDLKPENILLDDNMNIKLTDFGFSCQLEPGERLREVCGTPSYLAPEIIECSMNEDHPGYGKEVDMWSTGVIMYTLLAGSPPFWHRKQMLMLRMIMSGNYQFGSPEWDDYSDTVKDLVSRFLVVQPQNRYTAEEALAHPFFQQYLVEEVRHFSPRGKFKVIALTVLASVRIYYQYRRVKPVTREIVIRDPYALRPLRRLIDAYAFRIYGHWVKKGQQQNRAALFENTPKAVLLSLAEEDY
The target in assay [4] is Tyrosine-protein kinase Lyn (Homo sapiens, UniProt P07948).
Chain of Tyrosine-protein kinase Lyn (P07948 whole entry): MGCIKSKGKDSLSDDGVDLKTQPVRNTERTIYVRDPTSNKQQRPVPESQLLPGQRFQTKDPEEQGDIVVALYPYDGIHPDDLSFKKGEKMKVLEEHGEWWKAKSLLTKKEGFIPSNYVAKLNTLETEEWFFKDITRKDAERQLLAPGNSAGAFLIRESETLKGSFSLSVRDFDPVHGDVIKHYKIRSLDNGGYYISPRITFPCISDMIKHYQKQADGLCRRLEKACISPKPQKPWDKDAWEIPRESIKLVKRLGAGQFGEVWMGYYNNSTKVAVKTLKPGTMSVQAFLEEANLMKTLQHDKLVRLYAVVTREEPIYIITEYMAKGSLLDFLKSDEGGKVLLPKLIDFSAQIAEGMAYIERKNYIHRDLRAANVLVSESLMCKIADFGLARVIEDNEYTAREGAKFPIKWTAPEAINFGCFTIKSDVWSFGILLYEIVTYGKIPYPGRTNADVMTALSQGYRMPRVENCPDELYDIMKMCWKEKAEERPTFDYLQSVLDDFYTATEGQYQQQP
Another assay concerns the target T1, Aurora kinase C (Homo sapiens, UniProt Q9UQB9).
T1 sequence (Q9UQB9 whole entry): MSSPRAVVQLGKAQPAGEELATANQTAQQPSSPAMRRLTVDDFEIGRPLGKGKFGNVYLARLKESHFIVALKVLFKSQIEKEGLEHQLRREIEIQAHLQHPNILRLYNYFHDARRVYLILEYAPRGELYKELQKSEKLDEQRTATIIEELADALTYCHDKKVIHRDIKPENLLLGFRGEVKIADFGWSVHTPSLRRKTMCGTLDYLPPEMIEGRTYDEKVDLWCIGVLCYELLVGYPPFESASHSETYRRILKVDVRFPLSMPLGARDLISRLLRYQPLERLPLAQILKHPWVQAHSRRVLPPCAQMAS

The target of assay [5] is Death-associated protein kinase 3 (Homo sapiens, UniProt O43293).
Chain of Death-associated protein kinase 3 (O43293 whole entry): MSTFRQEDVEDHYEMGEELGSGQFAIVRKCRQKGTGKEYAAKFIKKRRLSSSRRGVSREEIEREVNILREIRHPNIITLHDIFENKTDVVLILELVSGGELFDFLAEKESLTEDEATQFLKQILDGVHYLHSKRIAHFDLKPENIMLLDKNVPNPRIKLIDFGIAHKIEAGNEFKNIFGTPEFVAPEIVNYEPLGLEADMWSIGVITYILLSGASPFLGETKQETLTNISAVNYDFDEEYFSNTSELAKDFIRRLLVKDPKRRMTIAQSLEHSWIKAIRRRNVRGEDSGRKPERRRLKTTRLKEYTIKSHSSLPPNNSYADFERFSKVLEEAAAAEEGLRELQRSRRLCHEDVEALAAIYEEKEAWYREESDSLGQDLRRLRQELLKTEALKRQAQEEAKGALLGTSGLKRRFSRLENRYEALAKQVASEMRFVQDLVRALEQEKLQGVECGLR
Another assay addresses T2, Ephrin type-A receptor 3 (Homo sapiens, UniProt P29320).
T2 sequence (P29320 whole entry): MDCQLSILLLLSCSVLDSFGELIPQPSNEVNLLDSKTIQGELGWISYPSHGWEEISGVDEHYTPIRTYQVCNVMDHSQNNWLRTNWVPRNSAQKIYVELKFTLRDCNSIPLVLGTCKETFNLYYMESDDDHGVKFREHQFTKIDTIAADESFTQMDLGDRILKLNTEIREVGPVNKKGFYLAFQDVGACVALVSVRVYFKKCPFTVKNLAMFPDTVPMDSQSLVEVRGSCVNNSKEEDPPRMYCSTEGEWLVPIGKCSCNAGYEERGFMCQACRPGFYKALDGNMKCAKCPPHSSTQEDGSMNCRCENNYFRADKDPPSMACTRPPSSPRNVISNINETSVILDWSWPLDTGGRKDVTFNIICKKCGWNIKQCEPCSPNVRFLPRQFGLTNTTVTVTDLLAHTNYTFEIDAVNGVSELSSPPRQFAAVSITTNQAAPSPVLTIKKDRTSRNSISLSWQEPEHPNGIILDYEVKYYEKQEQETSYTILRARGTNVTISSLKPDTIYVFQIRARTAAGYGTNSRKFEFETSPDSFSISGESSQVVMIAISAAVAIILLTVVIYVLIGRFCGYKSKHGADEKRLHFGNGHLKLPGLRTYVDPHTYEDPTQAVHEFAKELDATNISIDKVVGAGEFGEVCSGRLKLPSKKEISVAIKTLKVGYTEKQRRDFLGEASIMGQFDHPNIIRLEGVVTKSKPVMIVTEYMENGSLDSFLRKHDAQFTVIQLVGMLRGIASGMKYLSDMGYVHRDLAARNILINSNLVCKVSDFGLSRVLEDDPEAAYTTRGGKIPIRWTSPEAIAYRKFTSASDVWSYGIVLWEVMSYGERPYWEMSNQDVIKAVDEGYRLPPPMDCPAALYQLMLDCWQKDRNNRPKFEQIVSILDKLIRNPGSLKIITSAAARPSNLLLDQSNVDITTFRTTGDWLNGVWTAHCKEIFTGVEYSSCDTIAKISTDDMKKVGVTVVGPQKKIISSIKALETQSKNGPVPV

Assay [6] has as its target Dual specificity protein kinase CLK4 (Homo sapiens, UniProt Q9HAZ1).
In assay [7] the target is T3, Dual specificity protein kinase TTK (Homo sapiens, UniProt P33981).
T3 sequence (P33981 whole entry): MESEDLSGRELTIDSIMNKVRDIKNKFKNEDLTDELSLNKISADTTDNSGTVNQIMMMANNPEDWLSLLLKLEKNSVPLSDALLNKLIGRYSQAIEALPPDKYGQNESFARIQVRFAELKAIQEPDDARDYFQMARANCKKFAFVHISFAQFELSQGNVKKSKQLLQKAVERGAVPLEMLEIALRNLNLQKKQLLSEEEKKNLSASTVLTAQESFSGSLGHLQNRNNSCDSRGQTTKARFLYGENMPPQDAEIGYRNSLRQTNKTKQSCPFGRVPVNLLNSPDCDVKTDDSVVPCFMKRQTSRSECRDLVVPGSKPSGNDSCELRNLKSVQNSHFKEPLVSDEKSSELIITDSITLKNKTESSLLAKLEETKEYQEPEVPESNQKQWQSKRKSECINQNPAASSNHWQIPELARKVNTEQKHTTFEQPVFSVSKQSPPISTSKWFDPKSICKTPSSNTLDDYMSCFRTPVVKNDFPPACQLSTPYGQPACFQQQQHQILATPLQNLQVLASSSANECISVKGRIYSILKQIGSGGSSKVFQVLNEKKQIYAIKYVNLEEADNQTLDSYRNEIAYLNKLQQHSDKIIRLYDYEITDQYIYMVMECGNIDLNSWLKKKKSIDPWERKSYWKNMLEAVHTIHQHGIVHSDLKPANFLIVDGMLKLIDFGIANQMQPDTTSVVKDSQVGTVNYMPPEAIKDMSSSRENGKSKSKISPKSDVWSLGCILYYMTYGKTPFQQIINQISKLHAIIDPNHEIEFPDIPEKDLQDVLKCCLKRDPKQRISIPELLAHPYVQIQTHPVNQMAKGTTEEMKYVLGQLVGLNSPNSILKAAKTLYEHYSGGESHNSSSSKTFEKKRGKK

Assay [8] addresses Serine/threonine-protein kinase pim-2 (Homo sapiens, UniProt Q9P1W9).
The next assay concerns the target T4, Aurora kinase A (Homo sapiens, UniProt O14965).
T4 sequence (O14965 whole entry): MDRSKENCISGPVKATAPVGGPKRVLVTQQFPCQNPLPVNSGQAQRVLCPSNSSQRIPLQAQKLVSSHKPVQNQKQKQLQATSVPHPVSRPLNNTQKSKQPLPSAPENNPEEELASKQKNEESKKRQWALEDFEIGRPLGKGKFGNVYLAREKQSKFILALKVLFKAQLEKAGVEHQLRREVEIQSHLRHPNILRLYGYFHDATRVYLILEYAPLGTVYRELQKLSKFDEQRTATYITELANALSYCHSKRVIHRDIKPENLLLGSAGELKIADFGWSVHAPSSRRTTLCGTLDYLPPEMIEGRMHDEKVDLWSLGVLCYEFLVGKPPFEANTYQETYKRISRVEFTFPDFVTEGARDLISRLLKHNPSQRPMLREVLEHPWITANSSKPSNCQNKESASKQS

The target in assay [9] is Serine/threonine-protein kinase 16 (Homo sapiens, UniProt O75716).
Chain of Serine/threonine-protein kinase 16 (O75716 whole entry): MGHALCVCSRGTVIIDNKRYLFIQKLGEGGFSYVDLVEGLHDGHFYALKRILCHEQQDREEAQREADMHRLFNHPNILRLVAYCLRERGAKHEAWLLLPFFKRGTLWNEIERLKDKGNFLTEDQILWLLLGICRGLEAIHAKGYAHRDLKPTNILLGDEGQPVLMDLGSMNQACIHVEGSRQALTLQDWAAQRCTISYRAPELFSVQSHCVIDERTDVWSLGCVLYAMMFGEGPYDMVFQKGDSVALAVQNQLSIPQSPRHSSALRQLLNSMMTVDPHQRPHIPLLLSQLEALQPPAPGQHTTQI

Chain of Tyrosine-protein kinase Fer (P16591 whole entry): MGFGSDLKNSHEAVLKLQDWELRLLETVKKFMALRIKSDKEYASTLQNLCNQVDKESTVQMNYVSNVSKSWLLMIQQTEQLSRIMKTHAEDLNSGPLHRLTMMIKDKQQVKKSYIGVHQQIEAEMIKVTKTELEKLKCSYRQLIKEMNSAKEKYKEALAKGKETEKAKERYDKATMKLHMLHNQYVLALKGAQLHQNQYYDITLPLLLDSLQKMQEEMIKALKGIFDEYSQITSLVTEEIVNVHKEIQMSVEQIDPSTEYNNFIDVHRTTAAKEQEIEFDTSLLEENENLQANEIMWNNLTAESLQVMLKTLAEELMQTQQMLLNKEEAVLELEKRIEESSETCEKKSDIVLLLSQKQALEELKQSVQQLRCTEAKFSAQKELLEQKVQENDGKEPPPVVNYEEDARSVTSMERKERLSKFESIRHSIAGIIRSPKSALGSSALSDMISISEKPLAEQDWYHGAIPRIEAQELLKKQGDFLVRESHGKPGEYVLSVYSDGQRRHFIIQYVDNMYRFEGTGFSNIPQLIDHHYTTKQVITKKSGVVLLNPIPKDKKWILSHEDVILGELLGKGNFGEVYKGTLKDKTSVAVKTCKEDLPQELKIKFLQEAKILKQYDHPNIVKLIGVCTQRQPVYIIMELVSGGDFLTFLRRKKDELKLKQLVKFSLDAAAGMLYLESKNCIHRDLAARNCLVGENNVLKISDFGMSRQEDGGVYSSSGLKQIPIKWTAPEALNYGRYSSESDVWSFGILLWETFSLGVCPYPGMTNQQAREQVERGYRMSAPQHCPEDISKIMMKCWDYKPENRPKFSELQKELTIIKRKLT
Chain of Serine/threonine-protein kinase pim-2 (Q9P1W9 whole entry): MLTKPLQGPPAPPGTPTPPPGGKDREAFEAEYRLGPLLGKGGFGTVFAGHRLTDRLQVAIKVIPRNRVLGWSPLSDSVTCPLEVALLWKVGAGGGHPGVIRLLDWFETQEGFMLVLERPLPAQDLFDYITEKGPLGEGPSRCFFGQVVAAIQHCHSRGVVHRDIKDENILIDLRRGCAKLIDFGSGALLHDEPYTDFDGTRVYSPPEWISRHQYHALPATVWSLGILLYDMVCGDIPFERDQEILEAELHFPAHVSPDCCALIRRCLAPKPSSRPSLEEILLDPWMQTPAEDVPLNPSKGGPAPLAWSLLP
Chain of Dual specificity protein kinase CLK4 (Q9HAZ1 whole entry): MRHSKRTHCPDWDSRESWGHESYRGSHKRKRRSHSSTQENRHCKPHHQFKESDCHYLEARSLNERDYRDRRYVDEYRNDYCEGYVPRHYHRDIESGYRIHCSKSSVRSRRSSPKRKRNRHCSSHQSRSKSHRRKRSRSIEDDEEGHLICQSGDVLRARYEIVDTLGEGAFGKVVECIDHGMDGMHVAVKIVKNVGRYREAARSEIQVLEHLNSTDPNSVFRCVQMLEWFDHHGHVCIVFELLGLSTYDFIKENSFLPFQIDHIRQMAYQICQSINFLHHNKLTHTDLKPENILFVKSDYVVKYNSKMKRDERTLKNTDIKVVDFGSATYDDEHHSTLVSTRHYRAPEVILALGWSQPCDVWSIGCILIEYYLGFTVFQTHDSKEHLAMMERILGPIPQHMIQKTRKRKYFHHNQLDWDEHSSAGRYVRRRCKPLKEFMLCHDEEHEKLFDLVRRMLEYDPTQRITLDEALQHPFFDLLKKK
Chain of Tyrosine-protein kinase CSK (P41240 whole entry, canonical isoform): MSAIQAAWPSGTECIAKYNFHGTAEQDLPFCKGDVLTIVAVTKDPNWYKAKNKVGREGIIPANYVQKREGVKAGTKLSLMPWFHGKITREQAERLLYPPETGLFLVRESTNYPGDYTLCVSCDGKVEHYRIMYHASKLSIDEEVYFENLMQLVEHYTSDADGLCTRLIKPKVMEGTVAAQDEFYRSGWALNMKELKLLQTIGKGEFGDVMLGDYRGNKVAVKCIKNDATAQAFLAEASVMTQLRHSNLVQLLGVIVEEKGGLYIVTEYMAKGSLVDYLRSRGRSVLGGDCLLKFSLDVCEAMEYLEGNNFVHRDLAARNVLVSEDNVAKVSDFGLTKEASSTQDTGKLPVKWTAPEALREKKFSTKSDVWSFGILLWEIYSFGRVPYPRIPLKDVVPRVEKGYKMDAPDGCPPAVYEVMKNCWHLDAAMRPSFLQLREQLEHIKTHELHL

With `CCOc1cc2ncc(C#N)c(Nc3ccc(F)c(Cl)c3)c2cc1NC(=O)/C=C/CN(C)C` [PELITINIB], the Kd in [1] stood at 0.25 µM; in assay [2] it was 2.3 µM; in assay [3] it was 1.5 µM; in assay [4], 0.96 µM.
As for `Oc1c2ccccc2c2c3c(cccc13)N=N2` [SP-600125], the dissociation constant Kd on Aurora kinase C was determined as 5.3 µM; in [5] it was 0.41 µM; at Ephrin type-A receptor 3, 4 µM; in assay [6], 0.26 µM; in assay [7], 0.098 µM; in assay [8], 0.46 µM. The Kd is 0.98 µM at Aurora kinase A and 0.51 µM in assay [9].
